Reference: paper PMC2803436 (Current Chemical Genomics, 2008)
Non-standard residues stand in square brackets, D forms with d. Residues, ends and D or L forms follow the SMILES beside them. Nle = CCCC[C@H](N)C(=O)O

Tests used:
TEV protease [1] = biological target: T1, TEV protease (Tobacco etch virus, UniProt P04517); experiment: LOPAC1280 library screen using the CP234-Luc/ENLYFQC protease assay; format: biochemical; details: compounds at 100 µM, 15 minutes at room temperature
T1 sequence (P04517 2038-2279): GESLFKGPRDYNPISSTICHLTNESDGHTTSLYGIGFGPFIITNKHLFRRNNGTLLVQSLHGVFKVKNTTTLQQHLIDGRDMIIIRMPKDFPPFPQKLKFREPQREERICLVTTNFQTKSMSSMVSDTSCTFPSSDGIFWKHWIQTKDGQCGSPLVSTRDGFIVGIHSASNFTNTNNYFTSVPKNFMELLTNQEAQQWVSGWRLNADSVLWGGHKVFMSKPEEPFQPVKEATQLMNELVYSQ

TEV protease [2] = biological target: T1, TEV protease; experiment: CP234-Luc/ENLYFQC verification assay; details: SCH HBr and L-DOPA tested from 0 – 1 mM; NF-023 and ATA from 0 – 0.2 mM
TEV protease [3] = experiment: Initial tests of established inhibitors on TEV protease; format: biochemical, Tobacco Etch Virus; details: for Inhibition of TEV protease by known inhibitors of cysteine proteases: data not shown
TEV protease [4] = biological target: T1, TEV protease; experiment: Protein fusion; format: biochemical; details: tested from 0 – 0.1 mM

| Molecule | Inhibition of TEV protease cleavage in re-test, CP234-Luc/ENLYFQC assay (TEV protease [2]) | Inhibition of TEV protease by known inhibitors of cysteine proteases (TEV protease [3]) | also measured |
| --- | --- | --- | --- |
| O=C(O)C1=CC(=C(c2ccc(O)c(C(=O)O)c2)c2ccc(O)c(C(=O)O)c2)C=CC1=O [ATA, aurintricarboxylic acid] | confirmed | – | TEV protease inhibition (cleavage of CP234-Luc/ENLYFQC) in primary screen (TEV protease [1]): greater than 60% |
| CCOC(=O)[C@H]1O[C@@H]1C(=O)N[C@@H](CC(C)C)C(=O)NCCC(C)C (relative stereo) [EST, (2S,3S)-trans-Epoxysuccinyl-L-leucylamido-3-methylbutane Ethyl Ester] | – | resistant | – |
| Br.CN=c1nc(-c2ccccc2)n(-c2ccccc2)s1 [SCH HBr, N-(2,3-diphenyl-1,2,4-thiadiazol-5-(2H)-ylidene)methanamine hydrobromide] | did not inhibit | – | Inhibition of TEV protease cleavage in re-test, protein fusion cleavage assay (TEV protease [4]): did not inhibit |
| CC(C)C[C@H](NC(=O)[C@H]1O[C@@H]1C(=O)O)C(=O)NCCCCN=C(N)N [E-64] | – | resistant | – |
| CCCC[C@@H](C=O)NC(=O)[C@H](CC(C)C)NC(=O)[C@H](CC(C)C)NC(C)=O [ALLN, N-acetyl-Leu-Leu-NIe-CHO] (Ac-Leu-Leu-[Nle]-aldehyde) | – | resistant | – |
| [Zn] [zinc] | – | – | Inhibition of TEV protease (TEV protease [3]; 5 mM, also frequently precipitated the proteins out of solution): effectively inhibited |
| 2,5-dihydroxy-DL-tyrosine [L-DOPA] | did not inhibit | – | Inhibition of TEV protease cleavage in re-test, protein fusion cleavage assay (TEV protease [4]): did not inhibit |
